Where no end group is shown, it is not given here.
Assays:
[1] = test system: 786-0 human renal cell adenocarcinoma cell line; assay: Pro-angiogenic activity: growth of xenograft tumor in nude mouse; format: in vivo, nude mouse (nu/nu); conditions: 0.05 nmole/gm subcutaneously on alternate days; tumor weight estimated from volume
Procedure: Tumors require vascularization to obtain nutrients to support growth. Therefore, stimulation of growth of a tumor in response to administration of a construct of this invention is an indication of angiogenesis. For this example, a xenograph model system with the nude mouse (nu/nu) was used to determine the effect of peptide on growth of 786-0 human renal cell adenocarcinoma cell line injected into the flank of a mouse so as to induce a tumor. After the tumor was established, peptide was injected subcutaneously on alternate days. The weight of the tumor was estimated by calculation of the volume.
FIG. 4 illustrates data resulting from assays for pro-angiogenic activity for one embodiment of the invention. […] The peptide was also assayed in combination with Sorafenib, an anti-angiogenic drug.

[2] = test system: peripheral blood mononuclear cells (PBMCs); assay: Regulation of cytokine release: cytokine antibody array on medium of PBMC cultures; format: cell-based, human
Procedure: To determine whether the peptides regulate induction or inhibition of release of cytokines, cultured peripheral blood mononuclear cells (PBMCs) were treated with one peptide embodiment of the invention and, after 4 hour incubation, the medium was collected and assayed for changes in the amounts of 40 different cytokines. The peptide construct containing four copies of WNSTL (SEQ ID NO:1), illustrated in FIG. 2A, was added at a concentration of 100 nM in each of the assays. The PBMC cultures were established with cells from Cellular Technology, Ltd. (Shaker Heights, Ohio). Approximately 3 million cells of frozen human PBMCs were thawed at 37° C. and transferred to a 50 mL conical tube where 8 mL of wash medium were added slowly. Then an additional 8 mL were added and swirled to mix. The cells were then centrifuged at 330 g for 10 min, the supernatant was removed and the pellet was resuspended in 10 mL wash medium and centrifuged as above. The washed cells were then resuspended in RPMI 1640 medium containing 10% FBS to about 6 million cells per mL and 100 μL of the suspension were added into each well of a 96-well microtiter plate and incubated overnight at 37° C. in humidified 5% CO2. After 24 hr, the medium was replaced with 200 μL fresh RPMI 1640 medium containing 10% FBS and incubated at 37° C. in humidified 5% CO2 for 2 days. For the data shown in TABLE 1, an aliquot of the peptide construct was added to samples in duplicate at a final concentration of 5 nM or 100 nM and incubated at 37° C. in humidified 5% CO2 for 4 hr. For other experiments (data not included), the incubation was continued for 24 hr. The medium was then removed and stored at […]. The samples were analyzed for production of cytokines. One set of control cells was not treated with an experimental agent. A second set of control cells was treated with LPS, the agent commonly used to induce production of a variety of inflammatory cytokines.
Assays of cytokine levels in samples of culture media were performed using methods developed by RayBiotech, Inc. (Norcross, Ga.). In this technology, membrane arrays of antibodies against cytokines were incubated with samples of media. After washing, the array was incubated with a cocktail of all antibodies tagged with biotin. The membrane was then washed free of unbound antibodies and incubated with streptavidin labeled with a fluorescent dye. After a final wash, the membrane arrays were read in a fluorescence detector and the intensities of the spots quantitated to obtain relative values.
One set of control samples was not treated with peptide and a second set of control samples was treated with lipopolysaccharide (LPS) in the absence of the peptide construct. The structure of the construct is illustrated in FIG. 2A. […] The decrease in IL-8 concentration in the peptide-treated sample, as compared with the amount of IL-8 in the sample treated with the proto-typical inflammatory agent LPS, is particularly notable. […] The increase in the proangiogenic PDGF-BB and the decrease in the inflammatory IL-8, without concomitant stimulation of inflammation, are of particular importance with respect to wound healing. […]

[3] = test system: macrophages in PBMC cultures; assay: Stimulation of phagocytosis: macrophages engulfing microspheres opsonized with anti-HIV antibodies; format: cell-based, human; conditions: PBMC cultures pretreated; control cultures 0 to 3 beads
Procedure: The activity of the peptides to stimulate phagocytosis was assessed by the ability of macrophages to engulf microspheres opsonized with anti-HIV antibodies. A biotin-tagged peptide epitope of a surface protein of HIV-1 was bound to streptavidin on the surface of the beads. An antibody preparation that was raised against this epitope was then bound to the HIV peptide. The beads were then washed and presented to PBMC cultures pretreated with peptides. Macrophages in cultures not treated with peptides had little, if any, phagocytic activity. In multiple control cultures, the number of beads within a macrophage-like cell ranged from 0 to 3. In the cultures treated with peptide constructs containing four copies of the peptide sequences WNSTL (SEQ ID NO:1), NQHTPR (SEQ ID NO:2), or VQATQS (SEQ ID NO:8), an average of 10 beads were counted in each phagocytic cell, with no substantial difference between peptide constructs.

[4] = PBMCs in serum, 4 hr, construct 100 nM

## WNSTL: branched construct: four copies of core sequence WNSTL, each via GGGS linker on tri-lysine framework, C-terminal amide (also: four copies, each via GGGS linker on tri-lysine framework, C-terminal amide of construct)
[1]
  growth of the tumor enhanced over the control, factor: 1.7
[2]; 4 hr
  decrease in concentration of several cytokines as compared to untreated control samples: more than a two-fold decrease
[2]; [4]
  Relative concentration of Eotaxin-2: 109
  Relative concentration of GCSF: 50
  Relative concentration of ICAM-1: 44
  Relative concentration of IFN-γ: 103
  Relative concentration of IL-1β: 120
  Relative concentration of IL-4: 97
  Relative concentration of IL-6sR: 32
  Relative concentration of IL-7: 93
  Relative concentration of IL-8: 144
  Relative concentration of IL-10: 43
  Relative concentration of IL-11: 49
  Relative concentration of IL-12p40: 228
  Relative concentration of IL-12p70: 131
  Relative concentration of MCP-1: 968
  Relative concentration of PDGF-BB: 159
  Relative concentration of RANTES: 145
  Relative concentration of TIMP-2: 25
  Relative concentration of sTNF RI: 78
[2]; compared to untreated controls, 4 hr
  cytokines induced to higher concentrations: PDGF-BB, IL-1β, IL-4, IL-1, IL-12 and RANTES: more than two-fold higher
[2]; in one experiment, untreated control 98
  relative IL-6 concentration: 93
[3]
  average beads counted in each phagocytic cell: 10 beads

Reference: patent USRE47245E1, “Pro-angiogenic peptides and uses thereof” (Susavion Biosciences, Inc., priority 2006, dated 2019)
